Reference: patent publication US6582662B1, “Devices and methods for the performance of miniaturized homogeneous assays” (Tecan Trading AG, priority 1999, dated 2003)

Biological target: alkaline phosphatase
Assay: Enzyme inhibition assay on microfluidic disc (alkaline phosphatase / PNPP, reflectance at 430 nm)
Type: biochemical
Settings: end-point measurement 2 minutes after fluid pumped into detection chambers; dose-response fitted to Langmuir isotherm; substrate PNPP 0.5 mM; alkaline phosphatase 1 mg/mL; 0.1M glycine, 0.5 mM MgCl2; read-out: inhibition constant
Procedure: The platform shown in FIGS. 1 through 6 was used to perform 96 simultaneous enzyme inhibition assays as model homogeneous assays. In an enzyme inhibition assay, the effect of a compound present in a first fluid (“A”) upon the capacity of an enzyme present in a second fluid (fluid “B”) to catalyze a reaction, typically of a substrate in a third fluid (“C”) is determined. The reaction was chosen to give a change in a readily-measured parameter of the fluid, such as its optical density, or to produce a fluorescent moiety. When no inhibitor was present in fluid A, mixing solution A with enzyme solution B had no effect: enzyme activity detected in this assay was the maximum detected and provided the largest change in the measured parameter. However, if an inhibitor was present in fluid A, mixing fluid A with fluid B resulted, after a sufficient time in a chemical reaction or other change induced by the inhibitor in most or all of the enzyme molecules, rendering them incapable of catalyzing the desired reaction. If this solution was mixed with the substrate solution, little or no change in the measured parameter was seen.
The system chosen to model homogeneous assays consisted of theophylline as inhibitor, alkaline phosphatase as the enzyme, and p-nitrophenol phosphate (PNPP) as the substrate. […]

SMILES: Cn1c(=O)c2[nH]cnc2n(C)c1=O [theophylline]
- Ki: 9.7 ± 0.9 mM
